Test results published in PMC9760430, “A stapled chromogranin A-derived peptide homes in on tumors that express αvβ6 or αvβ8 integrins” (International Journal of Biological Sciences, 2023).
Peptide text beside a SMILES is read from it. * marks the point of attachment. X1 = CC1(C)C(/C=C/C2=C(Oc3ccc(S(=O)(=O)O)cc3)C(=C\C=C3/N(CCCCCC(=O)NCCN4C(=O)CC(*)C4=O)c4ccc(S(=O)(=O)O)cc4C3(C)C)/CCC2)=[N+](CCCCS(=O)(=O)O)c2ccc(S(=O)(=O)[O-])cc21

Target: T1, murine αvβ8 (Mus musculus, UniProt P43406+Q0VBD0)
T1 construct: purchased Bio-Techne
T1 sequence (P43406 31-988 limits assumed): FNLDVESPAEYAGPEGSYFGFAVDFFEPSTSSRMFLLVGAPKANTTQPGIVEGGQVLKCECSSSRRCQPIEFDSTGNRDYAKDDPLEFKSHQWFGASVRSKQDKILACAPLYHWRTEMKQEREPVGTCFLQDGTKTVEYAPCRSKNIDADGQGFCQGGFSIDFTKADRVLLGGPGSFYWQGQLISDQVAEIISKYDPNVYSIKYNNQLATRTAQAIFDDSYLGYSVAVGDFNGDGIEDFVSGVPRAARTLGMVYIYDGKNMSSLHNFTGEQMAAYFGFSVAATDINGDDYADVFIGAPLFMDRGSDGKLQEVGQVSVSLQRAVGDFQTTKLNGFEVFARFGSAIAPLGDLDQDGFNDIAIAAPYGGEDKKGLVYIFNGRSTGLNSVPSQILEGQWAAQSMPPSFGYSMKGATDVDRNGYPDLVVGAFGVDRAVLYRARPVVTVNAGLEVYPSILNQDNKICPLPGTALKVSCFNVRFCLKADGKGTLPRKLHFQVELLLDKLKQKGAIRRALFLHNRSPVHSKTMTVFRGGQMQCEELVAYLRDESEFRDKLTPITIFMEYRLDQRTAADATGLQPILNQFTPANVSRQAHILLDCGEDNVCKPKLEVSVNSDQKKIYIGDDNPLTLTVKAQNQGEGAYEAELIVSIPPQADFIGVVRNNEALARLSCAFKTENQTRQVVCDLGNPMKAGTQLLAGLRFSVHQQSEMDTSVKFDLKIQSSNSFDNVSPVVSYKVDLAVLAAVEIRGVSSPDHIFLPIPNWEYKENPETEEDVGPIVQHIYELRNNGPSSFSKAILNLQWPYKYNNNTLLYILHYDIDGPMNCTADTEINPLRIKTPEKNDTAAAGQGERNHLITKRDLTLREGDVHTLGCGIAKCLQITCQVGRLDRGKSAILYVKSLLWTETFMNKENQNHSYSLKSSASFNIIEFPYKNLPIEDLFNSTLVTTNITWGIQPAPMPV
T1 sequence (Q0VBD0 43-682 limits assumed): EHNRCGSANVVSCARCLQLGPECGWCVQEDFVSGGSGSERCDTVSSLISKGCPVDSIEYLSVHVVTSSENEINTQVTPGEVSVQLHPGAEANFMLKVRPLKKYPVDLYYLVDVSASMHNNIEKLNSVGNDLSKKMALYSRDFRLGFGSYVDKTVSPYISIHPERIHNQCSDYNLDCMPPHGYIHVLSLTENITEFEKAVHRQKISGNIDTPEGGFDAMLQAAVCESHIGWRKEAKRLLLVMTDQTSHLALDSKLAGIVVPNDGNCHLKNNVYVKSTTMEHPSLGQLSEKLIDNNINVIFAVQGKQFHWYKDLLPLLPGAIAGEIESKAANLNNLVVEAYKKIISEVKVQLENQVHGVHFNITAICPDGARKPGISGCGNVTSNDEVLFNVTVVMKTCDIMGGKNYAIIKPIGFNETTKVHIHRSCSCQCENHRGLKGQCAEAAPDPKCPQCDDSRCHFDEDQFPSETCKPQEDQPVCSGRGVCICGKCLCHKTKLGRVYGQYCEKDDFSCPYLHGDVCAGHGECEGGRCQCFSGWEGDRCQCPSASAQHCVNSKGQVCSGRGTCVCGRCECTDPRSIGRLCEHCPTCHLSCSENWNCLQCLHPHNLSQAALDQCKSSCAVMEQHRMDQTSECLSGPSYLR
Assay: direct integrin binding assay of peptide-IRDye conjugates, murine αvβ8-coated plates
Conditions: plates coated with recombinant murine αvβ8; conjugate 0.01-100 nM, 1 h; bound NIR fluorescence; mean ± SE, n = 3 experiments
Method: The affinity of peptide-IRDye conjugates for αvβ6 and αvβ8 integrins was determined by a direct binding assay using microtiter plates coated with αvβ6 or αvβ8 (Bio-Techne). After 1 h of incubation, the plates were washed; bound fluorescence was quantified by scanning the plates with an Odyssey CLx near-infrared fluorescence imaging system (LI-COR).
A control conjugate with a cysteine in place of the peptide was also prepared in parallel. […]
The simplified molecular-input line-entry system (SMILES) of 5a-, 2a-, Cys- and 5a-Scr- […]
The concentration of each conjugate was quantified by spectrophotometric analysis at 774 nm (molar absorption coefficient, 240,000 M-1, cm-1) (Figure S3B). The final yield of 5a-IRDye […]
Binding of peptide-IRDye conjugates to avb6 and avb8 integrin […]
conjugates were added to the microtiterplates and incubated at room temperature for 1 h (see Experimental Section). After washing, bound fluorescence was measured using an Odyssey CLx (LI-COR) scanner. Representative images of the scanned plates and quantification of binding are shown. […]

SMILES | EC50 [nM]
CC1(C)C(/C=C/C2=C(Oc3ccc(S(=O)(=O)O)cc3)C(=C\C=C3/N(CCCCCC(=O)NCCN4C(=O)CC(SC[C@H](N)C(=O)O)C4=O)c4ccc(S(=O)(=O)O)cc4C3(C)C)/CCC2)=[N+](CCCCS(=O)(=O)O)c2ccc(S(=O)(=O)[O-])cc21 (some centres unmarked) [Cys-IRDye] | > 100
CC[C@H](C)[C@H](NC(=O)[C@H](CCCNC(=N)N)NC(=O)[C@H](CCC(=O)O)NC(=O)[C@H](CCC(=O)O)NC(=O)CNC(=O)[C@H](CCCNC(=N)N)NC(=O)[C@H](CC(C)C)NC(=O)[C@@H](NC(=O)[C@H](CCC(=O)O)NC(=O)[C@H](Cc1ccccc1)NC(=O)[C@@H](N)CSC1CC(=O)N(CCNC(=O)CCCCCN2/C(=C\C=C3\CCCC(/C=C/C4=[N+](CCCCS(=O)(=O)O)c5ccc(S(=O)(=O)[O-])cc5C4(C)C)=C3Oc3ccc(S(=O)(=O)O)cc3)C(C)(C)c3cc(S(=O)(=O)O)ccc32)C1=O)[C@@H](C)O)C(=O)N[C@@H](CC(C)C)C(=O)N[C@@H](CO)C(=O)N[C@H](C(=O)N[C@@H](CC(C)C)C(=O)N[C@@H](CCCNC(=N)N)C(=O)N[C@@H](Cc1c[nH]cn1)C(=O)N[C@@H](CCC(N)=O)C(=O)N[C@@H](CC(N)=O)C(=O)N[C@@H](CC(C)C)C(=O)N[C@@H](CC(C)C)C(=O)N[C@@H](CCCCN)C(=O)N[C@@H](CCC(=O)O)C(=O)N[C@@H](CC(C)C)C(=O)N[C@@H](CCC(N)=O)C(=O)N[C@@H](CC(=O)O)C(N)=O)[C@@H](C)CC (some centres unmarked) [2a-IRDye] (H-C(X1)FETLRGEERILSILRHQNLLKELQD-NH2) | > 100
